# Test results as given in US20260209220A1, “SUBSTITUTED TETRAHYDROPYRROLO-PYRIDINONE COMPOUNDS AND THEIR USE IN TREATING MEDICAL CONDITIONS” (Karuna Therapeutics, Inc., priority 2022, published 2026).
# Experiments:
# [1] = target: T1, human M4 receptor (Homo sapiens, UniProt P08173); test: M4 GTPγS PAM assay (CHO-K1 membranes, 35S-GTP binding, with EC20 acetylcholine); assay type: biochemical; details: with EC20 acetylcholine (40 nM)
# T1 construct: expressed in transfected cells; host or cells: CHO-K1 cells (membranes)
# T1 sequence (P08173 1-479): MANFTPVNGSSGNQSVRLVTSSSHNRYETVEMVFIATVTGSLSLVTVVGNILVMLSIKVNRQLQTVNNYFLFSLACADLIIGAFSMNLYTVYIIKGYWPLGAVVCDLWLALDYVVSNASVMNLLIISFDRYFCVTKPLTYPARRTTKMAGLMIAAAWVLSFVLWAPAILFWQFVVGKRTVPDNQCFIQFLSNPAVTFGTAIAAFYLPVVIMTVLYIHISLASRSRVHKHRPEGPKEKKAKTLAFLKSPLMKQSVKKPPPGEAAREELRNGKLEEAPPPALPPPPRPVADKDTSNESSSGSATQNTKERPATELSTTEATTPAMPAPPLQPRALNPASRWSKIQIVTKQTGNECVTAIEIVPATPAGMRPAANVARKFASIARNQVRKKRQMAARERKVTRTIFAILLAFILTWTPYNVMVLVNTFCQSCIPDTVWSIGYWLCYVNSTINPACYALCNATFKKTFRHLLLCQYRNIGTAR
# Protocol: The M4 GTPγS PAM method was used. Membranes were prepared for GTPgS binding assays from CHO-K1 cells stably expressing human M4 receptor. Briefly, cells were grown in 5-layer cell culture flasks. Cells were washed with 50 mL of PBS and then dissociated with 0.05% trypsin. Dissociated cells were then collected by centrifugation at 650×g for 8 minutes at 4° C. Pellets were washed again in PBS by centrifugation and resuspended in 30 mL of 20 mM HEPES, 10 mM EDTA, pH 7.4. After sitting on ice for 30 min, membranes were collected by centrifugation at 50000×g for 15′ at 4° C., resuspended in 30 mL of 20 mM HEPES, 0.1 mM EDTA, pH 7.4 and collected again by centrifugation. Pellets were then washed twice by centrifugation in 30 mL of 20 mM HEPES, pH 7.4, and stored at −80° C. until the day of the assay. On the day of the assay, pellets were thawed on ice and resuspended in 1 mL of 20 mM HEPES, pH 7.4, 10 mM MgCl2, 100 mM NaCl using dounce homogenization. Membrane protein concentration is determined by BCA protein assay (Promega, Madison, WI) according to Promega guidelines.
# On the day of the assay, serial dilutions of test PAM compounds were brought up in assay buffer (20 mM HEPES, 10 mM MgCl2, 100 mM NaCl) at 4X final assay concentration. […] of membrane homogenates (containing […] of membrane protein) were prepared in assay buffer supplemented with GDP at […] final assay concentration (final assay concentration of GDP is 5 μM for M2 and 0.1 μM for M4) and dispensed into 96 well polypropylene, U-bottom Greiner plates. 25 ml of vehicle or test PAM compound at 4× of final assay concentration diluted in the assay buffer were added to membrane and plates are incubated for 10-15 minutes at room temperature with gentle shaking. Then, […] of EC20 acetylcholine in assay buffer at 4× final assay concentration was added to assay plates (EC20 final assay concentrations was 40 nM for human M4).
# Plates were then incubated, with shaking, for an additional 10-15 minutes. […] of 0.4 nM 35S-GTP (Perkin Elmer, Waltham, MA) in assay buffer was added to assay mixtures. The binding reaction is left on the shaker for 1 hour at room temperature. Membranes in assay reactions were then transferred to GF/C filter plates (Unifilter, Perkin Elmer) and washed three times using a FilterMate Harvester (Perkin Elmer) with cold assay buffer containing no GDP. Filter plates were then dried at 40° C. overnight followed by the addition of […] of Beta Plate Scintillation liquid. Plates are top and bottom sealed before being read on TopCount scintillation counter (Perkin Elmer, Waltham, MA).
# [2] = target: T2, hM4 receptors (Homo sapiens, UniProt P08173); test: Human M4 PAM PERK assay (CHO cells, TR-FRET, with EC20 acetylcholine); assay type: cell-based
# T2 construct: expressed in transfected cells; host or cells: CHO cells
# T2 sequence (P08173 1-479): T1 sequence (P08173 1-479)
# Outline: (§1)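 CHO cells expressing human or rat M4, serum-starved 4 h, then given compound (10-point, 10 μM top, ½-log) with EC20 acetylcholine (10 nM final) for 5 min at 37 °C. Lysates assayed for phospho-ERK by TR-FRET after 2 h detection at RT.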
# [3] = target: T3, rM4 receptors (Rattus norvegicus, UniProt P08485); test: Rat M4 PAM PERK assay (CHO cells, TR-FRET, with EC20 acetylcholine); assay type: cell-based
# T3 construct: expressed in transfected cells; host or cells: CHO cells
# T3 sequence (P08485 1-478): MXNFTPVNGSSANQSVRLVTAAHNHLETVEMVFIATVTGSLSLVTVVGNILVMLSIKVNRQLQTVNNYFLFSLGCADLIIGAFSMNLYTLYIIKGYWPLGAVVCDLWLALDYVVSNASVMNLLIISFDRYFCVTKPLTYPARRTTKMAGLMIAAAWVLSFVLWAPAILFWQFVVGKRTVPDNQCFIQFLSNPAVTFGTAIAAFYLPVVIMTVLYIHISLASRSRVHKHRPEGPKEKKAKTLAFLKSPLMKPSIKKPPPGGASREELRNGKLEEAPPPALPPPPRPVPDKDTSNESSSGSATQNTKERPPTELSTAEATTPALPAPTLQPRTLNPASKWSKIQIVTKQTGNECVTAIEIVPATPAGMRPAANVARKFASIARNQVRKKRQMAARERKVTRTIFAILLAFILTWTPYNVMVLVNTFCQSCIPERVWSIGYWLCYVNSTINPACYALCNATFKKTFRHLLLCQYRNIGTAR
# Outline: as §1
Compound,EC50 [1] [nM],EC50 [2] [nM],EC50 [3] [nM]
"Cn1c2c(c(C(F)(F)F)cc1=O)CN(C(=O)CC1CN(c3cccnc3)C1)C2 [Compound I-91, 1-Methyl-6-(2-(1-(pyridin-3-yl)azetidin-3-yl)acetyl)-4-(trifluoromethyl)-1,5,6,7-tetrahydro-2H-pyrrolo[3,4-b]pyridin-2-one]",> 1000,200 to 1000,200 to 1000
Cc1cc(=O)n(C)c2c1CN(C(=O)CC1CN(c3cnn(C4CC4)c3)C1)C2 [Compound I-37],200 to 1000,200 to 1000,> 1000
Cc1cc(=O)n(C)c2c1CN(C(=O)CC1CN(c3ccnc(C4CC4)n3)C1)C2 [Compound I-24],50 to 200,50 to 200,200 to 1000
"Cc1c2c(n(C)c(=O)c1C)CN(C(=O)CC1CN(c3nc(C(F)(F)F)c(C4CC4)s3)C1)C2 [Compound I-64, 6-(2-(1-(5-Cyclopropyl-4-(trifluoromethyl)thiazol-2-yl)azetidin-3-yl)acetyl)-1,3,4-trimethyl-1,5,6,7-tetrahydro-2H-pyrrolo[3,4-b]pyridin-2-one]",50 to 200,50 to 200,200 to 1000
Cc1c2c(n(C)c(=O)c1C)CN(C(=O)CC1CN(c3cnc(C4CC4)cn3)C1)C2 [Compound I-58],50 to 200,50 to 200,50 to 200
Cc1cc(=O)n(C)c2c1CN(C(=O)CC1CN(c3ccc(F)c(C(F)(F)F)c3)C1)C2 [Compound I-20],200 to 1000,50 to 200,50 to 200
Cc1c2c(n(C)c(=O)c1C)CN(C(=O)CC1CN(c3ccc(C#N)cc3)C1)C2 [Compound I-45],< 50,< 50,50 to 200
"Cc1c2c(n(C)c(=O)c1Cl)CN(C(=O)CC1CN(c3ccnc(C(F)(F)F)c3)C1)C2 [Compound I-66, 3-Chloro-1,4-dimethyl-6-(2-(1-(2-(trifluoromethyl)pyridin-4-yl)azetidin-3-yl)acetyl)-1,5,6,7-tetrahydro-2H-pyrrolo[3,4-b]pyridin-2-one]",< 50,< 50,50 to 200
"Cc1c2c(n(C)c(=O)c1C)CN(C(=O)CC1CN(c3nc(C4CC4)c(C(F)(F)F)s3)C1)C2 [Compound I-65, 6-(2-(1-(4-cyclopropyl-5-(trifluoromethyl)thiazol-2-yl)azetidin-3-yl)acetyl)-1,3,4-trimethyl-1,5,6,7-tetrahydro-2H-pyrrolo[3,4-b]pyridin-2-one]",< 50,200 to 1000,200 to 1000
COc1c2c(n(C)c(=O)c1C)CN(C(=O)CC1CN(c3ccc(C(F)(F)F)cc3)C1)C2 [Compound I-100],< 50,50 to 200,200 to 1000
Cc1cc(=O)n(C)c2c1CN(C(=O)CC1CN(c3ccc(F)cc3)C1)C2 [Compound I-11],200 to 1000,200 to 1000,200 to 1000
Cc1cc(=O)n(CC2CC2)c2c1CN(C(=O)CC1CN(c3ccc(C(F)(F)F)cc3)C1)C2 [Compound I-102],50 to 200,200 to 1000,200 to 1000
Cc1c2c(n(C)c(=O)c1C)CN(C(=O)CC1CN(c3ccc(F)c(C4CC4)c3)C1)C2 [Compound I-55],50 to 200,200 to 1000,50 to 200
Cc1cc(=O)n(C)c2c1CN(C(=O)CC1CN(c3ccc(C(F)(F)F)cn3)C1)C2 [Compound I-8],> 1000,200 to 1000,> 1000
Cc1c2c(n(C)c(=O)c1F)CN(C(=O)CC1CN(c3cnc(C(F)(F)F)cn3)C1)C2 [Compound I-90],200 to 1000,200 to 1000,50 to 200
Cc1c2c(n(C)c(=O)c1Cl)CN(C(=O)CC1CN(c3ccc(F)cc3)C1)C2 [Compound I-79],< 50,< 50,50 to 200
Cc1c2c(n(C)c(=O)c1F)CN(C(=O)CC1CN(c3ccc(C(F)(F)F)cc3)C1)C2 [Compound I-85],< 50,50 to 200,50 to 200
Cc1cc(=O)n(C)c2c1CN(C(=O)CC1CN(c3ccnc(OCC4CC4)c3)C1)C2 [Compound I-10],50 to 200,< 50,200 to 1000
